Calls of active or inactive are those of the source. No cut-off for these calls is given here.

For series [1], the system named is MGC-803. As to the kind of experiment: Induction of apoptosis in human MGC-803 cells assessed as viable cells at 0.5 uM after 24 hrs (reference value: 93.6%). The settings on record: read-out: Activity. The class given is functional.
Series [2] deals with MGC-803. As to the kind of experiment: Antitumor activity against human MGC-803 cells xenografted in BALB/c nude mice assessed as tumor inhibitory rate at 5 mg/kg, ip measured after 21 days relative to control. It is filed as functional. The settings on record: Mus musculus, MGC-803, ip, 504 h, time 21 day.
The subject of series [3] is MGC-803. As to the kind of experiment: Induction of cell cycle arrest in human MGC-803 cells assessed as accumulation of cells at G1 phase at 1 uM for 24 hrs (reference value: 62.6%). The class given is functional.
A short description of series [4]: Toxicity in BALB/c nude mouse xenografted with human MGC-803 cells assessed effect on body weight at 5 to 15 mg/kg, ip measured after 21 days. It is filed as organism-based. The settings on record: in vivo, 504 h, dose 5-15 mg/kg, time 21 day. In general terms: In xenograft studies the graft and the host belong to different species.
For series [5], the system named is MGC-803. In words: Induction of apoptosis in human MGC-803 cells assessed as necrotic cells at 2 uM after 24 hrs (reference value: 0.9%). It is filed as functional.
Series [6] concerns DNA. In words: Induction of DNA damage in human MGC-803 cells assessed as increase in p-H2AX levels at 0.5 to 1 uM by Western blot analysis. The class given is cell-based. The note with it: dose 0.5-1 µM. (Immunoblotting shows a protein as a band on a membrane.)
Series [7] relates to MGC-803. As to the kind of experiment: Induction of apoptosis in human MGC-803 cells assessed as late apoptotic cells at 2 uM after 24 hrs (reference value: 2.6%). The class given is functional.
Series [8] relates to MGC-803. As to the kind of experiment: Induction of apoptosis in human MGC-803 cells assessed as increase in caspase-3 expression at 0.5 to 1 uM by Western blot analysis. The class given is functional, cell-based. The settings on record: dose 0.5-1 µM.
For series [9], the system named is MGC-803. As to the kind of experiment: Induction of cell cycle arrest in human MGC-803 cells assessed as accumulation of cells at G1 phase at 0.25 uM for 24 hrs (reference value: 62.6%). It is filed as functional.
Series [10] has as its system MGC-803. In words: Induction of apoptosis in human MGC-803 cells assessed as viable cells at 2 uM after 24 hrs (reference value: 93.6%). It is filed as functional. The note with it: read-out: Activity.
For series [11], the system named is MGC-803. In words: Antitumor activity against human MGC-803 cells xenografted in BALB/c nude mice assessed as tumor increment rate at 15 mg/kg, ip measured after 21 days relative to control. It is filed as functional. The note with it: time 21 day.
The subject of series [12] is MGC-803. As to the kind of experiment: Induction of cell cycle arrest in human MGC-803 cells assessed as accumulation of cells at G1 phase at 0.5 uM for 24 hrs (reference value: 62.6%). It is filed as functional.
Series [13] deals with T1, DNA topoisomerase 1 (Homo sapiens) (UniProt P11387).
T1 sequence (whole entry): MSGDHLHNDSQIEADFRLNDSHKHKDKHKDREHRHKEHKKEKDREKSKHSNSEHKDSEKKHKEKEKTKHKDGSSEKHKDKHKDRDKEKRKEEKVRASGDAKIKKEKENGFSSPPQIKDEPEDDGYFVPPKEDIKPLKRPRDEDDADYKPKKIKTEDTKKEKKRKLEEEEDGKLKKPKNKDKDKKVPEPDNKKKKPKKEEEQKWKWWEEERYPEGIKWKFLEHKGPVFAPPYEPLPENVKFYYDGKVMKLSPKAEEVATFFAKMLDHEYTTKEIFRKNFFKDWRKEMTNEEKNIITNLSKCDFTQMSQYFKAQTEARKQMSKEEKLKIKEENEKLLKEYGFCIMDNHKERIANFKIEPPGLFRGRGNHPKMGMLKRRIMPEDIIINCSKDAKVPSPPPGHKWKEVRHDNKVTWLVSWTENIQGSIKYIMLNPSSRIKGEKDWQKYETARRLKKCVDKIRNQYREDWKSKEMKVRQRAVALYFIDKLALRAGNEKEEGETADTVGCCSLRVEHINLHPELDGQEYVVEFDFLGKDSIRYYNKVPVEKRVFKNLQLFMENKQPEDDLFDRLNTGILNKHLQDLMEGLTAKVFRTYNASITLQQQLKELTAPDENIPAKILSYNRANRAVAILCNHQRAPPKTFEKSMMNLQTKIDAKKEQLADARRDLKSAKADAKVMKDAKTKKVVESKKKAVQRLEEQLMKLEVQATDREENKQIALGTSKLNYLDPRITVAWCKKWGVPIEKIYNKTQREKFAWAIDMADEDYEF
In words: Inhibition of topoisomerase 1 (unknown origin) using pBR322 DNA as substrate at 10 uM by gel electrophoresis.

Series [14] deals with MGC-803. As to the kind of experiment: Antitumor activity against human MGC-803 cells xenografted in BALB/c nude mice assessed as tumor increment rate at 5 mg/kg, ip measured after 21 days relative to control. The class given is functional. The note with it: time 21 day.
For series [15], the system named is A549. As to the kind of experiment: cells. The note with it: Homo sapiens.
Description: Antiproliferative activity against human A549 cells by MTT assay
Series [16] has as its target T1, DNA topoisomerase 1 (Homo sapiens). In words: Inhibition of topoisomerase 1 (unknown origin) using pBR322 DNA as substrate at 20 uM by gel electrophoresis.

For `CN(C)CCN1C(=O)c2cccc3c(N4CCN(C(=O)c5ccccc5)CC4)c([N+](=O)[O-])cc(c23)C1=O`, in series [1], the viability at 0.5 µM was determined as 74.9%. The inhibition in vivo at 5 mg/kg in series [2] worked out at 40.1%. Moreover, the Activity was 27.92% in series [3]; “Non-Toxic” in series [4]; 5.6% in series [5]; 20.5% in series [7]; 50.91% in series [9]; 27.88% in [12]. The outcome in [6] and in [8] was Active. Moreover, the viability at 2 µM in [10] is 41.9%. The T/C in series [11] amounted to 47.1%; in series [14] it was 59.8%. Besides, the inhibition entry in [13] was “Active”. Moreover, the IC50 in series [15] worked out at 410 nM.

Consider `Cc1ccc(S(=O)(=O)N2CCN(c3c([N+](=O)[O-])cc4c5c(cccc35)C(=O)N(CCN(C)C)C4=O)CC2)cc1`, for which, in series [1], the viability at 0.5 µM was 78.5%. Further, the inhibition in vivo at 5 mg/kg in series [2] came to 41.9%. In addition, the Activity is on record as 24.82% in [3]; “Non-Toxic” in [4]; 6.2% in [5]; 10.2% in [7]; 53.73% in series [9]; 55.85% in [12]. The outcome in series [6] and in [8] was Active. The viability at 2 µM in [10] was 66.9%. The T/C in series [11] turned out to be 38.4%; in series [14], 52%. Besides, the half-maximal inhibitory concentration (IC50) in series [15] worked out at 270 nM. In addition, the inhibition entry in series [16] was “Active”.

What is called inhibition in vivo is the share of the control response that was lost under treatment. What is called T/C is the result in the treated group divided by that in the control group, in per cent. As a reminder, the IC50 is the concentration that gives 50% inhibition. The low end stands for greater potency, the high end for weaker potency.

Source of the values: ChEMBL document CHEMBL4732079, “Design, synthesis and antitumor evaluation of new 1,8-naphthalimide derivatives targeting nuclear DNA” (Eur J Med Chem, 2021).
